Results taken from article PMC12037410, “Pharmacological targeting of BMAL1 modulates circadian and immune pathways” (Nature Chemical Biology, 2025).
Where two headings read alike, the source gives them in different places.

Biological target: BMAL1 (Homo sapiens, UniProt O00327)
Parameters: PASB domain (residues 338–449); Protein thermal shift (PTS) fragment screen on recombinant human BMAL1(PASB), shift of melting temperature
Conditions: dTmB, binder

Sequence of BMAL1 (O00327 338-449): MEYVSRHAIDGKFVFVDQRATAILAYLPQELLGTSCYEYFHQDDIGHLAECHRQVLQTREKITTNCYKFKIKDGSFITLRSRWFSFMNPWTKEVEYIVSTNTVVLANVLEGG

Structure (SMILES)	Bmal1(PASB) dTmB [°C]	Bmal1(PASB) dTmB (Bmal1(PASB) dTmB) [°C]
COc1ccc2c(c1)OCC2=O [Prestw-Frag-1362, Compound 212]	-0.12	
COc1ccc(C(F)(F)F)cc1 [Prestw-Frag-2108, Compound 203]	-0.12	
O=C1c2ccccc2CN1c1ccccc1 [Prestw-Frag-2360, Compound 56]	-0.56	
Oc1ccc2[nH]ccc2c1 [Prestw-Frag-1645, Compound 308]	0.24	
NC(=O)C(c1ccccc1)c1ccccc1 [Prestw-Frag-2366, Compound 415]	-0.76	
COc1ccc2[nH]cc(CCN)c2c1 [Prestw-Frag-1480, Compound 3]	3.24	
COc1ccc(CNCCN(C)C)cc1 [Prestw-Frag-1887, Compound 172]	-0.14	
O=C(O)CCc1ccc(Cl)cc1 [Prestw-Frag-1126, Compound 340]	-0.19	
COc1ccc(CCN2CCC(N)CC2)cc1 [Prestw-Frag-1051, Compound 427]	-0.58	
Oc1cc(Cl)c(Cl)cc1Cl [Prestw-Frag-2898, Compound 59]	-0.02	
OCCc1ccc(Cl)cc1 [Prestw-Frag-3062, Compound 418]	0.02	
O=C(O)C(CO)c1ccccc1 (stereo not drawn) [Prestw-Frag-1686, Compound 284]	-1.23	
OC(c1ccc(F)cc1)c1ccc(F)cc1 [Prestw-Frag-1924, Compound 461]	-1.89	
CN(C)C(=O)C(c1ccccc1)c1ccccc1 [Prestw-Frag-1453, Compound 166]	-0.94	
CC(N)COc1ccccc1 (stereo not drawn) [Prestw-Frag-1691, Compound 270]	0.11	
Nc1nc2ccc(C(=O)c3ccccc3)cc2[nH]1 [Prestw-Frag-1471, Compound 466]	-1.29	
COc1ccc2nc(N)sc2c1 [Prestw-Frag-1898, Compound 305]	1.10	
Cn1c(=O)[nH]c2nc[nH]c2c1=O [Prestw-Frag-1138, Compound 38]	-0.59	
Nc1ncn([C@@H]2O[C@H](CO)[C@@H](O)[C@H]2O)c(=O)n1 [Prestw-Frag-3302, Compound 121]	-0.02	
CC(N)C(=O)c1ccccc1 (stereo not drawn) [Prestw-Frag-1941, Compound 223]	-0.18	
Cc1ccc(S(=O)(=O)NC(N)=O)cc1 [Prestw-Frag-1667, Compound 248]	0.07	
COc1cc(C)cc(C)c1C [Prestw-Frag-1506, Compound 359]	-0.12	

Structure (SMILES)	Bmal1(PASB) dTmB [°C]	Bmal1(PASB) dTmB (Bmal1(PASB) dTmB) [°C]
Cc1[nH]cnc1CO [Prestw-Frag-3752, Compound 153]	0.29	
Cc1ccccc1Nc1ncccc1C(=O)O [Prestw-Frag-2806, Compound 441]	0.29	
c1cnc(N2CCNCC2)nc1 [Prestw-Frag-1398, Compound 399]	-0.21	
Cc1nc(-c2ccccc2)cs1 [Prestw-Frag-3743, Compound 378]	-0.52	
O=c1[nH]nc(Cc2ccc(Cl)cc2)c2ccccc12 [Prestw-Frag-1559, Compound 61]	-0.44	
NCCc1ccc(O)cc1 [Prestw-Frag-2070, Compound 299]	-0.26	
N=C(N)CSCc1ccccc1 [Prestw-Frag-2348, Compound 201]	0.25	
CCN(Cc1ccccc1)c1ccccc1 [Prestw-Frag-1121, Compound 375]	-1.19	
Cc1nc(-c2ccccc2)c(-c2ccccc2)o1 [Prestw-Frag-2695, Compound 471]	-2.25	
O=C(Cc1ccccc1)NO [Prestw-Frag-1961, Compound 252]	-0.30	
OCc1ccc(O)cc1 [Prestw-Frag-2532, Compound 453]	-0.16	
c1cc2c(s1)CCNC2 [Prestw-Frag-1694, Compound 112]	-0.53	
NCCc1cnc[nH]1 [Prestw-Frag-1999, Compound 330]	-0.23	
CCOc1ccc(N)cc1 [Prestw-Frag-2201, Compound 146]	-0.64	
COc1ccc(CC(=O)O)cc1 [Prestw-Frag-2960, Compound 158]	0.16	
COc1ccc2cc[nH]c2c1 [Prestw-Frag-1372, Compound 392]	0.28	
Clc1ccc(-c2cncnc2)cc1 [Prestw-Frag-1704, Compound 385]	-1.51	
O=[N+]([O-])c1ccc(CO)cc1 [Prestw-Frag-1071, Compound 105]	-0.41	
O=C1CNCN1 [Prestw-Frag-3718, Compound 116]	-0.07	
O=C(O)C(c1ccccc1)c1ccccc1 [Prestw-Frag-3711, Compound 127]	-0.11	
OCCn1ccnc1 [Prestw-Frag-1303, Compound 120]	0.13	
CC1CCC(=O)O1 (stereo not drawn) [Prestw-Frag-3757, Compound 251]	-0.06	

Structure (SMILES)	Bmal1(PASB) dTmB [°C]	Bmal1(PASB) dTmB (Bmal1(PASB) dTmB) [°C]
N#Cc1ccc[nH]c1=O [Prestw-Frag-2408, Compound 346]	-0.07	
CN1C(=O)CCC1=O [Prestw-Frag-2713, Compound 293]	0.17	
Cc1nc(-c2ccccc2F)cs1 [Prestw-Frag-3745, Compound 298]	-0.20	
Cc1c(O)c2ccccc2oc1=O [Prestw-Frag-1130, Compound 324]	0.05	
c1ccc2cnccc2c1 [Prestw-Frag-2493, Compound 131]	-0.12	
COC(=O)C1=C(C)NC(C)=C(C(=O)OC)C1 [Prestw-Frag-1547, Compound 26]	-1.89	
Cn1ccc(=O)[nH]1 [Prestw-Frag-3664, Compound 92]	0.17	
c1ccc(CN2CCNCC2)cc1 [Prestw-Frag-2215, Compound 424]	-0.38	
CCOc1ccccn1 [Prestw-Frag-2477, Compound 94]	-0.05	
CNS(=O)(=O)Cc1ccc2[nH]cc(CCN)c2c1 [Prestw-Frag-3017, Compound 50]	0.72	
CCN(CC)CCOC(=O)c1ccccc1 [Prestw-Frag-1735, Compound 406]	-0.48	
Cc1cnc(C(=O)O)cn1 [Prestw-Frag-1494, Compound 98]	0.14	
c1ccc2nccnc2c1 [Prestw-Frag-3033, Compound 315]	0.23	
Nc1ccc(Cl)nn1 [Prestw-Frag-1184, Compound 263]	-0.26	
Nc1c(Cl)ccc2nsnc12 [Prestw-Frag-1492, Compound 2]	-1.34	
COC(=O)c1c[nH]c2ccccc12 [Prestw-Frag-2799, Compound 456]	-0.14	
O=C(O)c1cccc(-c2ccc(F)cc2F)c1 [Prestw-Frag-1238, Compound 368]	-0.92	
c1ccc2c3c([nH]c2c1)CNCC3 [Prestw-Frag-1014, Compound 154]	-0.81	
COc1ccc2nc(SC)[nH]c2c1 [Prestw-Frag-2118, Compound 167]	1.19	
O=C(O)CCC(=O)Nc1ccccc1 [Prestw-Frag-2383, Compound 124]	-0.33	
Cc1nnc(N)s1 [Prestw-Frag-1161, Compound 49]	-1.77	
OC(Cn1ccnc1)c1ccc(Cl)cc1Cl (stereo not drawn) [Prestw-Frag-1182, Compound 411]	-0.85	

Structure (SMILES)	Bmal1(PASB) dTmB [°C]	Bmal1(PASB) dTmB (Bmal1(PASB) dTmB) [°C]
CC(C)(Oc1ccccc1)C(=O)O [Prestw-Frag-1053, Compound 221]	0.07	
COc1ccc2nc[nH]c2c1 [Prestw-Frag-3678, Compound 41]	-0.91	
CN1[C@@H]2CC[C@H]1CC(O)C2 (stereo partly drawn) [Prestw-Frag-0608, Compound 128]	-0.41	
Nc1cc2ccccc2oc1=O [Prestw-Frag-1001, Compound 197]	0.68	
c1ccc(N2CCNCC2)nc1 [Prestw-Frag-1110, Compound 364]	-0.48	
NC(=O)COc1ccccc1 [Prestw-Frag-2578, Compound 235]	-0.19	
CC1=NN(c2ccccc2)C(=O)C1 [Prestw-Frag-3742, Compound 81]		1.77
CNS(=O)(=O)CCc1ccccc1 [Prestw-Frag-3368, Compound 97]	-0.29	
CS(=O)(=O)c1ccc(N)cc1 [Prestw-Frag-1214, Compound 111]	-0.40	
CNCCc1ccc(OC)c(OC)c1 [Prestw-Frag-1446, Compound 257]	-0.19	
Oc1ccccc1C1CCCC1 [Prestw-Frag-2706, Compound 472]	-2.14	
OCc1ccncc1 [Prestw-Frag-2303, Compound 179]	-0.35	
O=C1CN(Cc2ccccc2)CCN1 [Prestw-Frag-3459, Compound 48]	-0.65	
c1ccc(C2CCNCC2)cc1 [Prestw-Frag-2537, Compound 310]	-0.53	
O=C(Cc1ccccc1F)C1CC1 [Prestw-Frag-3198, Compound 60]	-1.49	
CN(C)C(c1ccccc1)c1ccccc1 [Prestw-Frag-2100, Compound 331]	-1.24	
NNCCc1ccccc1 [Prestw-Frag-1818, Compound 31]	-1.46	
OCc1ccc(F)cc1F [Prestw-Frag-3100, Compound 349]	0.05	
CC(C(=O)O)c1cccc(F)c1 (stereo not drawn) [Prestw-Frag-3706, Compound 79]	0.26	
NC(=O)c1ccncc1 [Prestw-Frag-2587, Compound 181]	0.25	
Cc1cc(=O)[nH]c(=S)[nH]1 [Prestw-Frag-2127, Compound 68]	-0.75	
